Laboratory results: article PMC4116331 (Journal of molecular biology, 2014)
pIC50: −log10 of the molar value. Read-outs that look alike come from different tables or passages of the source.

What was measured:
[1] = biological target: RT DNA polymerase activity (Human immunodeficiency virus type 1 group M subtype B, UniProt P04585); test: RT RNA-dependent DNA polymerase activity; assay type: biochemical, HIV-1
[2] = tested on: RT-RNase H; test: RT-RNase H inhibition of other RNHIs; assay type: biochemical, HIV-1
[3] = biological target: RT-RNase H; conditions: read-out: IC50, RT-RNase H, cited from earlier work
[4] = read-out: In vitro IC50 RT DNA pol, pH 7.4, 1 mM Mg2+

O=C(O)Cc1cc(=O)oc2c(O)c(O)ccc12 [Compound F3284-8495, (7,8-dihydroxy-2-oxo-2H-chromen-4-yl)acetic acid]
pIC50 [1]: < 5.00
Inhibition of RT DNA polymerase activity ([1]; at 10 µM, the highest concentration tested): no detectable inhibition

O=c1cc(CN2CCN(C(c3ccccc3)c3ccccc3)CC2)c2ccc(O)c(O)c2o1 [Compound F3385-2581]
pIC50 [1, 4]: 5.66

COc1ccc(N2CCN(Cc3cc(=O)oc4c(O)c(O)ccc34)CC2)cc1.Cl.Cl [Compound F3385-2588]
Inhibition of the DNA polymerase activity of RT (in words) [1]: did not inhibit
pIC50 [1, 4]: < 5.00

O=c1cc(CN2CCN(c3cccc(Cl)c3)CC2)c2ccc(O)c(O)c2o1 [Compound F3385-2590]
pIC50 [1, 4]: 5.60

CC(C)c1ccc(O)c(=O)c(O)c1 [β-Thujaplicinol, β-thujaplicinol]
Fold greater activity than F3284-8495 against the RNase H of full-length RT [2]: greater than 20 fold
pIC50 [3]; 31: 6.68

manicol
pIC50 [3]: 6.22
